Measurements published in patent US6451814B1, “Heterocyclic β-3 adrenergic receptor agonists” (Wyeth, priority 2000, dated 2002).
Values joined by “and” are separate entries in the source; they are usually repeats but may differ in a detail not shown here. Equal values may be shown once.

How the values were obtained:
[1] = target: T1, human β3-adrenergic receptor (Homo sapiens, UniProt P13945); test: cAMP response (SPA kit) in CHO cells transfected with human β3 adrenergic receptor; format: cell-based; settings: for EC50: CHO cells expressing human β3-AR, 10^-9 M to 10^-5 M, 30 min at 37° C., cAMP by SPA, read-out: EC50(β3); for IA(β3): maximal response of compound compared to maximal response of isoproterenol at 10^-5 M, CHO cells, human β3-AR
T1 construct: Full length β3 AR clones (402 amino acids) containing the last 6 amino acids of hβ3—AR are prepared; expressed in transfected cells; host or cells: CHO cells
T1 sequence (P13945 whole entry): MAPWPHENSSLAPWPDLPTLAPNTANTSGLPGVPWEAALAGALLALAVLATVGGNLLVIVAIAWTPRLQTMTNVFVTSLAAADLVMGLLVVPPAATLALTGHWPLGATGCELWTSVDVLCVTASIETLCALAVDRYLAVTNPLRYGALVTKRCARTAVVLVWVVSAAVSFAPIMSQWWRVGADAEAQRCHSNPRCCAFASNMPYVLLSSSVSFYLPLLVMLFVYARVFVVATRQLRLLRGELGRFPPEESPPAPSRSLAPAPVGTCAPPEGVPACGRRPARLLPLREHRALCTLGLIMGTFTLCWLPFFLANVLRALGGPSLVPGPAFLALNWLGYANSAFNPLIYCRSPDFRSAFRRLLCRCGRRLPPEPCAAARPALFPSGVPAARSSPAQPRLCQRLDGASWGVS

| SMILES | EC50 [1] | IA(β3) [1] | melting point [°C] |
| --- | --- | --- | --- |
| CCCCCC(=O)N1CCC(Nc2ccc(CCNC[C@H](O)COc3ccc(O)cc3)cc2)CC1 [Example 103, 1-[4-(4-{2-[(2S)-2-Hydroxy-3-(4-hydroxy-phenoxy)-propylamino]-ethyl}-phenylamino)-piperidin-1-yl]-hexan-1-one] | 0.074 µM | 0.9 | 57 to 59 |
| O=C(NCc1ccc(F)cc1)N1CCC(Nc2ccc(OCCNC[C@H](O)COc3ccc(O)cc3)cc2)CC1 [Example 39, 4-(4-{2-[(2S)-2-Hydroxy-3-(4-hydroxy-phenoxy)-propylamino]-ethoxy}-phenylamino)-piperidine-1-carboxylic Acid 4-fluoro-benzylamide] | 0.036 µM | 0.9 | 73 to 77 |
| O=C(NCc1ccccc1C(F)(F)F)N1CCC(Nc2ccc(CCNC[C@H](O)COc3ccc(O)cc3)cc2)CC1 [Example 33, 4-(4-{2-[(2S)-2-Hydroxy-3-(4-hydroxy-phenoxy)-propylamino]-ethyl}-phenylamino)-piperidine-1-carboxylic Acid 2-trifluoromethyl-benzylamide] | 0.055 µM | 0.78 | 83 to 86 |
| O=C(NCc1ccccc1F)N1CCC(Nc2ccc(CCNC[C@H](O)COc3ccc(O)cc3)cc2)CC1 [Example 26, 4-(4-{2-[(2S)-2-Hydroxy-3-(4-hydroxy-phenoxy)-propylamino]-ethyl}-phenylamino)-piperidine-1-carboxylic Acid 2-fluoro-benzylamide] |  | 0.91 | 79 to 84 |
| CS(=O)(=O)Nc1cc([C@@H](O)CNCCc2ccc(NC3CCN(c4ccc(S(=O)(=O)N5CCCCC5)cc4)CC3)cc2)ccc1O [Example 119] | 0.008 µM | 1.03 | 118 to 120 |
| O=C(NCC1CCCC1)N1CCC(Nc2ccc(CCNC[C@H](O)COc3ccc(O)cc3)cc2)CC1 [Example 70, 4-(4-{2-[(2S)-2-Hydroxy-3-(4-hydroxy-phenoxy)-propylamino]-ethyl}-phenylamino)-piperidine-1-carboxylic Acid Cyclopentylmethyl-amide] | 0.106 µM | 1 | 76 to 78 |
| COc1ccc(CCCCNC(=O)N2CCC(Nc3ccc(CCNCC(O)COc4ccc(O)cc4)cc3)CC2)cc1OC (stereo not shown) [Example 57, 4-(4-{2-[2-Hydroxy-3-(4-hydroxy-phenoxy)-propylamino]-ethyl}-phenylamino)-piperidine-1-carboxylic Acid [4-(3,4-dimethoxy-phenyl)-butyl]-amide] |  | 0.94 | 60 to 62 |
| NC(=O)N1CCC(Nc2ccc(CCNC[C@H](O)COc3ccc(O)cc3)cc2)CC1 [Example 18, 4-(4-{2-[(2S)-2-Hydroxy-3-(4-hydroxy-phenoxy)-propylamino]-ethyl}-phenylamino)-piperidine-1-carboxylic Acid Amide] |  | 1 | 84 to 89 |
| CCOC(=O)C1CCN(C(=O)N2CCC(Nc3ccc(CCNC[C@H](O)c4ccc(O)c(NS(C)(=O)=O)c4)cc3)CC2)CC1 [Example 51, 1-[4-(4-{2-[(2R)-2-Hydroxy-2-(4-hydroxy-3-methanesulfonylamino-phenyl)-ethylamino]-ethyl}-phenylamino)-piperidine-1-carbonyl]-piperidine-4-carboxylic Acid Ethyl Ester] | 0.001 µM | 0.82 | 93 to 97 |
| CCCCCCCCNC(=O)N1CCC(S(=O)(=O)c2ccc(CCNC[C@H](O)COc3ccc(O)c(C)c3)cc2)CC1 [Example 48, 4-(4-{2-[(2S)-2-Hydroxy-3-(4-hydroxy-3-methyl-phenoxy)-propylamino]-ethyl}-benzenesulfonyl)-piperidine-1-carboxylic Acid Octylamide] | 0.05 µM | 0.7 | 58 to 71 |
| O=C(NCC1(c2ccccc2)CCCC1)N1CCC(Sc2ccc(CCNC[C@H](O)COc3ccc(O)cc3)cc2)CC1 [Example 43, 4-(4-{2-[(2S)-2-Hydroxy-3-(4-hydroxy-phenoxy)-propylamino]-ethyl}-phenylsulfanyl)-piperidine-1-carboxylic Acid (1-phenyl-cyclopentylmethyl)-amide] | 0.39 µM | 0.81 | 132 |
| CS(=O)(=O)Nc1cc(OC[C@@H](O)CNCCc2ccc(NC3CCN(C(=O)NCc4cc(F)ccc4F)CC3)cc2)ccc1O [Example 50, 4-(4-{2-[(2S)-2-Hydroxy-3-(4-hydroxy-3-methanesulfonylamino-phenoxy)-propylamino]-ethyl}-phenylamino)-piperidine-1-carboxylic Acid 2,5-difluoro-benzylamide] |  | 1 | 103 to 108 |
| O=C(NCCCC1CCCCC1)N1CCC(Nc2ccc(CCNC[C@H](O)COc3ccc(O)cc3)cc2)CC1 [Example 68, 4-(4-{2-[(2S)-2-Hydroxy-3-(4-hydroxy-phenoxy)-propylamino]-ethyl}-phenylamino)-piperidine-1-carboxylic Acid (3-cyclohexyl-propyl)-amide] | 0.039 µM | 1.1 | 69 to 71 |
| CS(=O)(=O)Nc1cc([C@@H](O)CNCCc2ccc(NC3CCN(C(=O)NCc4cc(F)ccc4F)CC3)cc2)ccc1O [Example 76, 4-(4-{2-[(2R)-2-Hydroxy-2-(4-hydroxY-3-methanesulfonylamino-phenyl)-ethylamino]-ethyl}-phenylamino)-piperidine-1-carboxylic Acid 2,5-difluoro-benzylamide] |  | 1 | 116 to 118 |
| O=C(NCC(c1ccccc1)c1ccccc1)N1CCC(Nc2ccc(CCNC[C@H](O)COc3ccc(O)cc3)cc2)CC1 [Example 31, 4-(4-{2-[(2S)-2-Hydroxy-3-(4-hydroxy-phenoxy)-propylamino]-ethyl}-phenylamino)-piperidine-1-carboxylic Acid (2,2-diphenyl-ethyl)-amide] | 0.136 µM and 0.068 µM | 0.69 and 0.4 | 91 to 94 |
| CCCCCCNC(=O)N1CCC(Sc2ccc(CCNC[C@H](O)COc3ccc(O)cc3)cc2)CC1 [Example 41, N-hexyl-4-{[4-(2-{[(2S)-2-hydroxy-3-(4-hydroxyphenoxy)propyl]amino}ethyl)phenyl]sulfanyl}-1-piperidinecarboxamide] | 0.62 µM | 0.84 | 181 to 195 |
| O=C(OCc1ccc(F)cc1)N1CCC(Nc2ccc(CCNC[C@H](O)COc3ccc(O)cc3)cc2)CC1 [Example 121, 4-(4-{2-[(2S)-2-Hydroxy-3-(4-hydroxy-phenoxy)-propylamino]-ethyl}-phenylamino)-piperidine-1-carboxylic acid 4-fluoro-benzyl Ester] | 0.09 µM | 0.69 | 60 to 62 |
| CCOC(=O)C1CCN(C(=O)N2CCC(Nc3ccc(CCNC[C@H](O)COc4ccc(O)cc4)cc3)CC2)CC1 [Example 61, 1-[4-(4-{2-[(2S)-2-Hydroxy-3-(4-hydroxy-phenoxy)-propylamino]-ethyl}-phenylamino)-piperidine-1-carbonyl]-piperidine-4-carboxylic Acid Ethyl Ester] | 0.089 µM | 1.34 | 69 to 71 |
| O=C(NCCc1ccc(F)cc1)N1CCC(Nc2ccc(CCNC[C@H](O)COc3ccc(O)cc3)cc2)CC1 [Example 15, 4-(4-{2-[(2S)-2-Hydroxy-3-(4-hydroxy-phenoxy)-propylamino]-ethyl}-phenylamino)-piperidine-1-carboxylic Acid [2-(4-fluoro-phenyl)-ethyl]-amide] | 0.034 µM | 0.91 | 73 to 77 |
| O=C(c1c[nH]c2ccccc12)N1CCC(Nc2ccc(CCNC[C@H](O)COc3ccc(O)cc3)cc2)CC1 [Example 99, [4-(4-{2-[(2S)-2-Hydroxy-3-(4-hydroxy-phenoxy)-propylamino]-ethyl}-phenylamino)-piperidin-1-yl]-(1H-indol-3-yl)-methanone] | 0.009 µM | 1.08 | 90 to 92 |
| CCc1ccc(CCNC(=O)N2CCC(Nc3ccc(CCNC[C@H](O)COc4ccc(O)cc4)cc3)CC2)cc1 [Example 30, 4-(4-{2-[(2S)-2-Hydroxy-3-(4-hydroxy-phenoxy)-propylamino]-ethyl}-phenylamino)-piperidine-1-carboxylic Acid [2-(4-ethyl-phenyl)-ethyl]-amide] | 0.034 µM and 0.049 µM and 0.022 µM and 0.098 µM | 1 and 0.87 and 0.84 and 0.65 | 79 to 81 |
| CCCCCCCCNC(=O)N1CCC(Nc2ccc(CCNC[C@H](O)c3ccc(O)c(NS(C)(=O)=O)c3)cc2)CC1 [Example 59, 4-(4-{2-[(2R)-2-Hydroxy-2-(4-hydroxy-3-methanesulfonylamino-phenyl)-ethylamino]-ethyl}-phenylamino)-piperidine-1-carboxylic Acidoctylamide] | 0.003 µM | 1 | 160 to 162 |
| CCCCCCNC(=O)Nc1ccc(CNC(=O)N2CCC(Nc3ccc(CCNC[C@H](O)COc4ccc(O)cc4)cc3)CC2)cc1 [Example 67, 4-(4-{2-[(2S)-2-Hydroxy-3-(4-hydroxy-phenoxy)-propylamino]-ethyl}-phenylamino)-piperidine-1-carboxylic Acid 4-(3-hexyl-ureido)-benzylamide] | 0.029 µM | 0.92 | 141 to 143 |
| Cc1ccc(CCCNC(=O)N2CCC(Nc3ccc(CCNC[C@H](O)COc4ccc(O)cc4)cc3)CC2)cc1 [Example 29, 4-(4-{2-[(2S)-2-Hydroxy-3-(4-hydroxy-phenoxy)-propylamino]-ethyl}-phenylamino)-piperidine-1-carboxylic Acid (3-p-tolyl-propyl)-amide] | 0.043 µM | 1 | 69 to 72 |
